Molecules are shown by their SMILES.

This assay deals with HCT116^MTAP Deletion cells. Put plainly: Anti-proliferation assay on cells (Cell-Titer Glo, 10 days). It counts as cell-based. To be noted: HCT116^MTAP Deletion cells, 10 days incubation, CTG readout; read-out: HCT116^MTAP Deletion GI50. The procedure:
HCT116^MTAP Deletion cells were from Pharmaron (China); HCT116 cells were from ATCC; McCoy's 5A medium was purchased from Invitrogen (USA); penicillin-streptomycin and fetal bovine serum were purchased from Gibco (USA); a 384-well plate was purchased from PerkinElmer (USA); and Cell-Titer Glo reagent was purchased from Promega (USA).
Compound dissolution: All the compounds were dissolved in dimethyl sulfoxide (DMSO) and then stored. The compounds were stored at room temperature in a dry condition for 3 months for short term storage or at -20 °C for long term storage.
Cell culture and passaging
The cells were cultured strictly in accordance with ATCC requirements. The cell culture medium (McCoy's 5A medium + 10% fetal bovine serum + 1% penicillin + streptomycin) was transferred to a 15 mL centrifuge tube and centrifuged at 1000 rpm for 5 min. The supernatant was removed. The cells were resuspended with complete culture medium, inoculated into a culture dish at the required density, and cultured in an incubator at 37 °C, 95% humid air, and 5% carbon dioxide. The culture medium was replenished or the cells were passaged every 2-3 days depending on the cell growth condition.
Cell proliferation activity assay
When the confluency of cells in the culture dish reached about 90%, the cells were washed twice with PBS, and then treated with trypsin to become single cells. The cells were counted, and 40µl of the cells was inoculated into each well of a 384-well plate (50 cells/well). The plate was equilibrated at 37 °C and 5% carbon dioxide for 10 to 15 minutes. The compounds were injected into the 384-well plate using Echo550, and positive control and negative control (0.1% DMSO) were set up. Each compound was subjected to a 3-fold dilution, resulting in 10 concentration gradients, in duplicate, and the content of DMSO was 0.1%. The 384-well plate was incubated in a cell culture incubator for 10 days.
Then, 40 µl of cell proliferation assay reagent (CTG) was added to the 384-well plate, and the plate was shaken to mix well. Then, the 384-well plate was incubated at 37 °C and 5% carbon dioxide in the dark for 30 minutes. The data were read using the Envision multifunctional microplate reader. […] According to the different drug concentrations and their corresponding inhibition rates, the GI50 curve was drawn using GraphPad 8.0 software. The data were analyzed, and the final IC50 value was obtained.
A word on the GI50: it is the concentration at which growth is held to half of that of the control. For `CCC(C)N(Cc1ccc(C(F)(F)F)cn1)C(=O)C(=O)Nc1cnc(N)c2c1cnn2C` (racemic) [Example 46-P1], the GI50 lay within 10 to 100 nM.

As for `CN(C(=O)C(=O)Nc1cnc(N)c2c1cnn2C)C1COCc2c(F)cc(Cl)cc21` (racemic) [compound 155], the 50% growth inhibitory concentration (GI50) fell in the range of 10 to 100 nM.

In the case of `Cc1cc(NC(=O)C(=O)N(C)C2COCc3cc(C4=CCOCC4)ccc32)cnc1N` (racemic) [compound 162], the GI50 fell in the range of 100 to 1000 nM.

For `CN(C(=O)C(=O)Nc1cnc(N)c2c1cnn2C)C1COCc2c1ccc(Cl)c2Cl` (racemic) [compound 168], the GI50 was < 10 nM.

On to `CN(C(=O)C(=O)Nc1cnc(N)c2c1cnn2C)C1COc2cc(F)c(F)cc21` (racemic) [compound 172], for which the GI50 is 10 to 100 nM.

As to `CN(C(=O)C(=O)Nc1cnc(N)c2c1cnn2C)C1COCc2cc(C3=CCC(F)(F)CC3)ccc21` (racemic) [compound 174], the 50% growth inhibitory concentration (GI50) was < 10 nM.

For `CN(C(=O)C(=O)Nc1cnc(N)c2c1cnn2C)C1COc2cc(Br)ccc21` (racemic) [compound 180], the GI50 was < 10 nM.

For the compound `Cc1ncc(-c2ccc3c(c2)COCC3N(C)C(=O)C(=O)Nc2cnc(N)c3c2cnn3C)s1` (racemic) [compound 181], the GI50 was < 10 nM.

As for `CN(C(=O)C(=O)Nc1cnc(N)c2c1cnn2C)C1COCc2cc(Br)ccc21` (racemic) [compound 182], the GI50 was < 10 nM.

`CN(C(=O)C(=O)Nc1cnc(N)c2c1cnn2C)C1COc2cc(Cl)c(Cl)cc21` (racemic) [compound 186]: the GI50 was < 10 nM.

Regarding `CN(C(=O)C(=O)Nc1cnc(N)c2c1cnn2C)C1COc2cc(-c3ccnn3C)ccc21` (racemic) [compound 192], the GI50 is < 10 nM.

On to `Cc1ncc(-c2ccc3c(n2)COCC3N(C)C(=O)C(=O)Nc2cnc(N)c3c2cnn3C)s1` (racemic) [compound 209], for which the GI50 is < 10 nM.

Consider `CN(C(=O)C(=O)Nc1cnc(N)c2c1cnn2C)C1COCc2cc(-c3cnn(C4CC4)c3)ccc21` (racemic) [compound 223], for which the GI50 was < 10 nM.

As for `CN(C(=O)C(=O)Nc1cnc(N)c2c1cnn2C)C1COCc2cc(-c3cnn(C(F)(F)F)c3)ccc21` (racemic) [compound 231], the GI50 is < 10 nM.

For `CCC(C)N(Cc1ccc(C(F)(F)F)cn1)C(=O)C(=O)Nc1cnc(OC)c(C(N)=O)c1` (single isomer, unassigned) [Example 5-P1], the 50% growth inhibitory concentration (GI50) is 10 to 100 nM.

Turning to `CCC(C)N(Cc1ccc(C(F)(F)F)cn1)C(=O)C(=O)Nc1cnc(OC)c(C(N)=O)c1` (single isomer, unassigned) [Example 5-P2], the GI50 was 10 to 100 nM.

`Cc1cc(NC(=O)C(=O)N(Cc2ccc(C(F)(F)F)cn2)C2CCCOC2)cnc1N` (single isomer, unassigned) [Example 14-P1]: the GI50 lay in the range of 100 to 1000 nM.

Consider `Cc1cc(NC(=O)C(=O)N(Cc2ccc(C(F)(F)F)cn2)C2CCCOC2)cnc1N` (single isomer, unassigned) [Example 14-P2], for which the GI50 is 100 to 1000 nM.

Take `Cc1cc(NC(=O)C(=O)N(Cc2ccc(C(F)(F)F)cn2)C(C)c2cscn2)cnc1N` (single isomer, unassigned) [Example 19-P1]: the GI50 was in the range of 10 to 100 nM.

Turning to `Cc1cc(NC(=O)C(=O)N(Cc2ccc(C(F)(F)F)cn2)C(C)c2cscn2)cnc1N` (single isomer, unassigned) [Example 19-P2], the GI50 lay in the range of 10 to 100 nM.

In the case of `CCC(C)N(Cc1ccc(C(F)(F)F)cn1)C(=O)C(=O)Nc1cnc(N)c(C)c1` (single isomer, unassigned) [Example 45-P1], the GI50 fell in the range of 10 to 100 nM.

In the case of `CCC(C)N(Cc1ccc(C(F)(F)F)cn1)C(=O)C(=O)Nc1cnc(N)c(C)c1` (single isomer, unassigned) [Example 45-P2], the GI50 was in the range of 10 to 100 nM.

For the compound `CC1OCc2c(NC(=O)C(=O)N(C)C3COCc4cc(C(F)(F)F)ccc43)cnc(N)c21` (single isomer, unassigned) [Example 146-P1], the GI50 lay in the range of 100 to 1000 nM.

With `CC1OCc2c(NC(=O)C(=O)N(C)C3COCc4cc(C(F)(F)F)ccc43)cnc(N)c21` (single isomer, unassigned) [Example 146-P2], the GI50 was in the range of 10 to 100 nM.

As for `CN(C(=O)C(=O)Nc1cnc(N)c2c1cnn2C)C1COCc2nc(C(F)(F)F)ccc21` (single isomer, unassigned) [Example 152-P1], the 50% growth inhibitory concentration (GI50) fell in the range of 100 to 1000 nM.

Consider `CN(C(=O)C(=O)Nc1cnc(N)c2c1cnn2C)C1COc2cc(C3=CCOCC3)ccc21` (single isomer, unassigned) [Example 153-P1], for which the GI50 was < 10 nM.

With `CN(C(=O)C(=O)Nc1cnc(N)c2c1cnn2C)C1COc2cc(C3=CCOCC3)ccc21` (single isomer, unassigned) [Example 153-P2], the GI50 lay within 100 to 1000 nM.

Take `Cc1cc(NC(=O)C(=O)N(C)Cc2ccc(C(F)(F)F)cn2)cnc1N` [Example 3]: the GI50 lay in the range of 1000 to 10000 nM.

As for `Cn1ncc2c(NC(=O)C(=O)N(Cc3ccc(C(F)(F)F)cn3)CC3CCC3)cnc(N)c21` [Example 4], the GI50 was 10 to 100 nM.

For `Cc1cc(/C=C/C(=O)N(Cc2ccc(C(F)(F)F)cn2)[C@H](C)c2ncccn2)cnc1N` [Example 6], the GI50 was > 10000 nM.

On to `Cc1cc(C2CC2C(=O)N(Cc2ccc(C(F)(F)F)cn2)[C@H](C)c2ncccn2)cnc1N` (stereo partly shown) [Example 7], for which the GI50 was > 10000 nM.

Regarding `CCC(C)N(Cc1ccc(C(F)(F)F)cn1)C(=O)C(=O)Nc1cnc(N)c2c1COC2C` (stereo not shown) [Example 10], the GI50 fell in the range of 10 to 100 nM.

In the case of `Cc1cc(NC(=O)C(=O)N(Cc2ccc(C(F)(F)F)cn2)C2CCCC2)cnc1N` [Example 11], the GI50 fell in the range of 100 to 1000 nM.

In the case of `Cc1cc(NC(=O)C(=O)N(Cc2ccc(C(F)(F)F)cn2)C2CC2)cnc1N` [Example 12], the GI50 is 100 to 1000 nM.

For the compound `Cc1cc(NC(=O)C(=O)N(Cc2ccc(C(F)(F)F)cn2)C2CCC2)cnc1N` [Example 13], the GI50 lay within 100 to 1000 nM.

For `Cc1cc(NC(=O)C(=O)N(Cc2ccc(C(F)(F)F)cn2)CC2CC2)cnc1N` [Example 15], the GI50 lay within 10 to 100 nM.

As for `Cc1cc(NC(=O)C(=O)N(Cc2ccc(C(F)(F)F)cn2)CC2CCC2)cnc1N` [Example 16], the GI50 was 10 to 100 nM.

In the case of `Cc1cc(NC(=O)C(=O)N(Cc2ccc(C(F)(F)F)cn2)CC2CCCC2)cnc1N` [Example 17], the GI50 lay in the range of 10 to 100 nM.

`Cc1cc(NC(=O)C(=O)N(Cc2ccc(C(F)(F)F)cn2)c2cnn(C)c2)cnc1N` [Example 18]: the GI50 fell in the range of 100 to 1000 nM.

For `C[C@H](c1ncccn1)N(Cc1ccc(C(F)(F)F)cn1)C(=O)C(=O)Nc1cnc(N)c(F)c1` [Example 22], the GI50 fell in the range of 1000 to 10000 nM.

Regarding `C[C@H](c1ncccn1)N(Cc1ccc(C(F)(F)F)cn1)C(=O)C(=O)Nc1cnc(N)c(Cl)c1` [Example 23], the GI50 was in the range of 1000 to 10000 nM.

As for `C[C@H](c1ncccn1)N(Cc1ccc(C(F)(F)F)cn1)C(=O)C(=O)Nc1cnc(N)c(Br)c1` [Example 24], the GI50 lay within 100 to 1000 nM.

Consider `COc1ncc(NC(=O)C(=O)N(Cc2ccc(C(F)(F)F)cn2)[C@H](C)c2ncccn2)cc1C(N)=O` [Example 25], for which the GI50 was 10 to 100 nM.

Turning to `Cc1cc(N)ncc1NC(=O)C(=O)N(Cc1ccc(C(F)(F)F)cn1)[C@H](C)c1ncccn1` [Example 26], the GI50 lay within 100 to 1000 nM.

`Cc1nc(NC(=O)C(=O)N(Cc2ccc(C(F)(F)F)cn2)[C@H](C)c2ncccn2)cnc1N` [Example 27]: the GI50 fell in the range of 100 to 1000 nM.

For `Cc1cc(NC(=O)C(=O)N(Cc2ccc(C#N)cn2)[C@H](C)c2ncccn2)cnc1N` [Example 28], the GI50 was in the range of 1000 to 10000 nM.

On to `Cc1cc(NC(=O)C(=O)N(Cc2ccc(N3CCC(F)(F)C3)cn2)[C@H](C)c2ncccn2)cnc1N` [Example 29], for which the concentration for 50% growth inhibition (GI50) was in the range of 100 to 1000 nM.

Regarding `C[C@H](c1ncccn1)N(Cc1ccc(C(F)(F)F)cn1)C(=O)C(=O)Nc1cnc(N)c2c1cnn2C` [Example 30], the GI50 was in the range of 10 to 100 nM.

On to `C[C@H](c1ncccn1)N(Cc1ccc(C(F)(F)F)cn1)C(=O)C(=O)Nc1cnc(N)c2c1CCCC2` [Example 31], for which the GI50 was 100 to 1000 nM.

For `C[C@H](c1ncccn1)N(Cc1ccc(C(F)(F)F)cn1)C(=O)C(=O)Nc1cnc(N)c2ccncc12` [Example 32], the GI50 was in the range of 100 to 1000 nM.

As to `CCOc1ccc(CN(C(=O)C(=O)Nc2cnc(N)c(C)c2)[C@H](C)c2ncccn2)nn1` [Example 35], the GI50 lay within 10 to 100 nM.

As to `Cc1cc(NC(=O)C(=O)N(Cc2ccc(C(F)(F)F)cn2)[C@H](C)C2CC2)cnc1N` [Example 36], the GI50 is 10 to 100 nM.

`C[C@H](c1ncccn1)N(Cc1ccc(C(F)(F)F)cn1)C(=O)C(=O)Nc1cnc(N)c2cncn12` [Example 38]: the GI50 is > 10000 nM.

Turning to `C[C@H](C1CC1)N(Cc1ccc(C(F)(F)F)cn1)C(=O)C(=O)Nc1cnc(N)c2c1COC2` [Example 39], the GI50 lay within 100 to 1000 nM.

For the compound `Nc1ncc(NC(=O)C(=O)N(Cc2ccc(C(F)(F)F)cn2)CC2CC2)c2c1COC2` [Example 40], the GI50 lay within 100 to 1000 nM.

For the origin of these results see EP4563571A1, “PRMT5 INHIBITORS” (Beijing Earthwise Technology Co., Ltd., priority 2022, dated 2024).
